Test: Solubility of piroxicam in PEG400 (HPLC)
Assay type: physicochemical
Conditions: piroxicam in PEG400, excess stirred 2 weeks at room temperature, HPLC analysis

For `CN1C(C(=O)Nc2ccccn2)=C(O)c2ccccc2S1(=O)=O` [piroxicam], the solubility was 1.6%.

Reference: US6537576B1, “Biologically active composition” (Bioglan AB, priority 1998, dated 2003)
